According to patent US20230034696A1, “EGFR INHIBITORS” (Hoffmann-La Roche Inc., priority 2019, published 2023):

Target: T1, EGFR TMLRCS (BaF3-TMLRCS cell line) (Homo sapiens, UniProt P00533, C797S/L858R/T790M)
T1 construct: host or cells: BaF3 (murine pro-B cells) engineered to express EGFR TMLRCS
Assay: HTRF Phospho EGFR TMLRCS assay (cellular)
Type: cell-based
Details: BaF3-TMLRCS cells, 4 hours incubation
Description: HTRF Phospho EGFR TMLRCS Assay (Cellular)
BaF3-TMLRCS cell line were obtained from Crownbio (San Diego, CA, USA). Cells were maintained at 37° C., 5% CO2 in RPMI ATCC (Gibco 31870) + 2 mM Glutamine + 0.5 µg/ml Puromycin supplemented with 10% fetal bovine serum (FBS) (Gibco).
Cells are transferred as above to Greiner Bio-One, Nr. 784-08 micro-titerplate at 20000 cells/well in 12.5 µl of growth medium/well after the plates had been pre-filled with 12.5 nl of DMSO solutions of the to be tested compound (in dose response) or DMSO only. After spinning the plates at 300 × g for 30 seconds the cells were incubated for 4 hours at 37C, 5% CO2, 95% humidity. The cells were lysed by adding to the compound mix 4 µl/well of the supplemented lysis buffer (Cis-bio, Phospho-EGFR HTRF kit, 64EG1PEH), followed by incubation for 30 min at room temperature with shaking (400 rpm). The plates were then frozen and stored overnight at -80C. […] The lidded plates were then incubated for 4 h at room temperature before reading the fluorescence emission at 616 and 665 nm using an Envision reader (Perkin Elmer). Data was analyzed in similar fashion as above using the normalized ratio of the 665 to 616 signals multiplied by 10000.

T1 sequence (P00533 25-1210 T790M/C797S/L858R): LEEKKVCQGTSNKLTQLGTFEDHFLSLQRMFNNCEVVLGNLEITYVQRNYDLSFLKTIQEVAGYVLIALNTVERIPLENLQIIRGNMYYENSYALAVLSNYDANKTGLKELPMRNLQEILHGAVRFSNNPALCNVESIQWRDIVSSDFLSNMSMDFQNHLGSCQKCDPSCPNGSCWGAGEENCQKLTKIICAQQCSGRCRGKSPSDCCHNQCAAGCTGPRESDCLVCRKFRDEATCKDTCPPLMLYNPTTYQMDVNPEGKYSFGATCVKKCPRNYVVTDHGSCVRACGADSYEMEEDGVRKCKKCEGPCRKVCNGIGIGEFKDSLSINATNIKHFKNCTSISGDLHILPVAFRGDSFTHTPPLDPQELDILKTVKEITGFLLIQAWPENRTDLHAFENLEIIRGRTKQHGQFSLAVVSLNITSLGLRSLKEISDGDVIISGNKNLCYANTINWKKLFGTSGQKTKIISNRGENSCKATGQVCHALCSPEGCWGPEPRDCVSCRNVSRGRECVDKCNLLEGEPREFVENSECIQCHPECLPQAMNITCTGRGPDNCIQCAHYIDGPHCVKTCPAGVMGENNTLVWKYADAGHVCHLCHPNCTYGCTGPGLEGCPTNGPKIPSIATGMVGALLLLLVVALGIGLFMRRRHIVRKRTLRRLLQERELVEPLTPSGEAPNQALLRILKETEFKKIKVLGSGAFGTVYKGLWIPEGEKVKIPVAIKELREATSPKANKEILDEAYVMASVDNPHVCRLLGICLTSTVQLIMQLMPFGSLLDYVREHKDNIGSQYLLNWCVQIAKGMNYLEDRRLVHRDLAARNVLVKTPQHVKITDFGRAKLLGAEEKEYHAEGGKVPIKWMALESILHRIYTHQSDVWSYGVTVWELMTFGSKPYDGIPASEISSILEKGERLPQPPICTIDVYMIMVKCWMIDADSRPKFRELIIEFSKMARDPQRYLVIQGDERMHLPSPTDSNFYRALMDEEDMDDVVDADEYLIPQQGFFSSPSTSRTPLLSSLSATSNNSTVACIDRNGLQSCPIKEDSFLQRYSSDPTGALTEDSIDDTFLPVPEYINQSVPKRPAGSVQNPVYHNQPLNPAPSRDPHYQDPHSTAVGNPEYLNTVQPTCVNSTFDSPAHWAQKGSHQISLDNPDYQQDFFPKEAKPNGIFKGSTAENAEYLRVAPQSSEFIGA

IC50: 3 nM
Compound: O=C(Nc1nccs1)C(c1ncn2c1CCC2)N1Cc2c(Cl)cc(C#Cc3ccc(CN4CCC(CO)CC4)cc3)cc2C1=O (racemic) [Example 1, 2-[4-chloro-6-[2-[4-[[4-(hydroxymethyl)-1-piperidyl]methyl]phenyl]ethynyl]-1-oxo-isoindolin-2-yl]-2-(6,7-dihydro-5H-pyrrolo[1,2-c]imidazol-1-yl)-N-thiazol-2-yl-acetamide]
